# Source: patent publication US20050090529A1, “3,5 Disubstituted indazole compounds with nitrogen-bearing 5-membered heterocycles, pharmaceutical compositions, and methods for mediating or inhibiting cell proliferation” (PFIZER INC, priority 2003, published 2005)
# System: Cyclin-dependent kinase
# Assay: Cyclin-dependent kinase inhibition, % inhibition at 10 nM (library Examples 99-270)
# Type: biochemical
# Details: 10 nM compound
# In short: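 Enzyme starts the reaction at 30° C, which runs 20 min with 25 μM [³²P/³³P]ATP and protein substrate (pH 7.4, 10 mM MgCl2, 2% DMSO). After EDTA quench, membrane-bound labelled substrate is read by phosphorimaging following acid washes.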
row,Compound,% Inhib @ 10 nM [%]
1,"CCNCc1cncc(-c2ccc3[nH]nc(-c4ncc(C(=O)N5CCC(C)(c6cccc(OC)c6)C5)[nH]4)c3c2)c1C (centres unmarked) [Example 197, ethyl({5-[3-(5-{[3-(3-methoxyphenyl)-3-methylpyrrolidin-1-yl]carbonyl}-1H-imidazol-2-yl)-1H-indazol-5-yl]-4-methylpyridin-3-yl}methyl)amine]",67
2,"CCNCc1cncc(-c2ccc3[nH]nc(-c4ncc(C(=O)NCCc5ncn[nH]5)[nH]4)c3c2)c1C [Example 198, 2-(5-{5-[(ethylamino)methyl]-4-methylpyridin-3-yl}-1H-indazol-3-yl)-N-[2-(1H-1,2,4-triazol-5-yl)ethyl]-1H-imidazole-5-carboxamide]",55
3,"CCNCc1cncc(-c2ccc3[nH]nc(-c4ncc(C(=O)NCCN(C)CCCCCO)[nH]4)c3c2)c1C [Example 199, 2-(5-{5-[(ethylamino)methyl]-4-methylpyridin-3-yl}-1H-indazol-3-yl)-N-{2-[(5-hydroxypentyl)(methyl)amino]ethyl}-1H-imidazole-5-carboxamide]",25
4,"CCNCc1cncc(-c2ccc3[nH]nc(-c4ncc(C(=O)NCC(=O)OCc5ccccc5)[nH]4)c3c2)c1C [Example 200, benzyl N-{[2-(5-{5-[(ethylamino)methyl]-4-methylpyridin-3-yl}-1H-indazol-3-yl)-1H-imidazol-5-yl]carbonyl}glycinate]",63
5,"CCNCc1cncc(-c2ccc3[nH]nc(-c4ncc(C(=O)N5CCC(c6c[nH]c7ccccc67)CC5)[nH]4)c3c2)c1C [Example 201, ethyl({5-(3-(5-{[4-(1H-indol-3-yl)pipendin-1-yl]carbonyl}-1H-imidazol-2-yl)-1H-indazol-5-yl]-4-methylpyridin-3-yl}methyl)amine]",67
6,"CCNCc1cncc(-c2ccc3[nH]nc(-c4ncc(C(=O)NCc5ccc(S(C)(=O)=O)cc5)[nH]4)c3c2)c1C [Example 202, 2-(5-{5-[(ethylamino)methyl]-4-methylpyridin-3-yl}-1H-indazol-3-yl)-N-[4-(methylsulfonyl)benzyl]-1H-imidazole-5-carboxamide]",49
7,"CCNCc1cncc(-c2ccc3[nH]nc(-c4ncc(C(=O)N[C@@H]5CCCC[C@H]5OCc5ccccc5)[nH]4)c3c2)c1C [Example 203, N-[(1R,2R)-2-(benzyloxy)cyclohexyl]-2-(5-{5-[(ethylamino)methyl]-4-methylpyridin-3-yl)-1H-indazol-3-yl)-1H-imidazole-5-carboxamide]",31
8,"CCNCc1cncc(-c2ccc3[nH]nc(-c4ncc(C(=O)NC[C@]5(O)CC[C@H](c6ccccc6)CC5)[nH]4)c3c2)c1C [Example 204, 2-(5-{5-[(ethylamino)methyl]-4-methylpyridin-3-yl}-1H-indazol-3-yl)-N-[(trans-1-hydroxy-4-phenylcyclohexyl)methyl]-1H-imidazole-5-carboxamide]",77
9,"CCNCc1cncc(-c2ccc3[nH]nc(-c4ncc(C(=O)N5CCC6(CC5)CNC(=O)C6)[nH]4)c3c2)c1C [Example 205, 8-{[2-(5-{5-[(ethylamino)methyl]-4-methylpyridin-3-yl}-1H-indazol-3-yl)-1H-imidazol-5-yl]carbanyl}-2,8-diazaspiro[4.5]decan-3-one]",40
10,"CCNCc1cncc(-c2ccc3[nH]nc(-c4ncc(C(=O)N(CCC#N)Cc5cccnc5)[nH]4)c3c2)c1C [Example 206, N-(2-cyanoethyl)-2-(5-{5-N(ethylamino)methyl8-4-methylpyridin-3-yl}-1H-indazol-3-yl)-N-(pyridin-3-ylmethyl)-1H-imidazole-5-carboxamide]",71
11,C=C(C)CN(CC)C(=O)c1cnc(-c2n[nH]c3ccc(-c4cncc(CNCC)c4C)cc23)[nH]1 [Example 207],69
12,"CCNCc1cncc(-c2ccc3[nH]nc(-c4ncc(C(=O)NCC56C=CC(O5)[C@H]5C(=O)N(C)C(=O)[C@H]56)[nH]4)c3c2)c1C (stereo partly drawn) [Example 208, 2-(5-{5-[(ethylamino)methyl]-4-methylpyridin-3-yl}-1H-indazol-3-yl)-N-{[(3aR,7aS)-2-methyl-13-dioxo-1,2,3,3a,7,7a-hexahydro-4H-4,7-epoxyisoindol-4-yl]methyl}-1H-imidazole-5-carboxamide]",55
13,CCNCc1cncc(-c2ccc3[nH]nc(-c4ncc(C(=O)N5CCN6CCCC6C5)[nH]4)c3c2)c1C (centres unmarked) [Example 209],37
14,CCNCc1cncc(-c2ccc3[nH]nc(-c4ncc(C(=O)NCC5(N(C)C)CCOCC5)[nH]4)c3c2)c1C [Example 210],35
15,"CCNCc1cncc(-c2ccc3[nH]nc(-c4ncc(C(=O)NC5CCOCC5)[nH]4)c3c2)c1C [Example 211, 2-(5-{5-[(ethylamino)methyl]-4-methylpyridin-3-yl}-1H-indazol-3-yl)-N-(tetrahydro-2H-pyran-4-yl)-1H-imidazole-5-carboxamide]",57
16,CCNCc1cncc(-c2ccc3[nH]nc(-c4ncc(C(=O)NCc5ccc(OC)c6ccccc56)[nH]4)c3c2)c1C [Example 212],71

row,Compound,% Inhib @ 10 nM [%]
1,"CCNCc1cncc(-c2ccc3[nH]nc(-c4ncc(C(=O)N(CC#N)Cc5ccccc5)[nH]4)c3c2)c1C [Example 213, N-benzyl-N-(cyanomethyl)-2-(5-{5-[(ethylamino)methyl]-4-methylpyridin-3-yl}-1H-indazol-3-yl)-1H-imidazale-5-carboxamide]",68
2,"CCNCc1cncc(-c2ccc3[nH]nc(-c4ncc(C(=O)N5CCN(CCC#N)CC5)[nH]4)c3c2)c1C [Example 214, 3-(4-{[2-(5-{5-[(ethylamino)methyl]-4-methylpyridin-3-yl}-1H-indazol-3-yl)-1H-imidazol-5-yl]carbonyl}piperazin-1-yl)propanenitrile]",40
3,CCNCc1cncc(-c2ccc3[nH]nc(-c4ncc(C(=O)NCc5cc6cc[nH]c6cn5)[nH]4)c3c2)c1C [Example 215],72
4,"CCNCc1cncc(-c2ccc3[nH]nc(-c4ncc(C(=O)NCCC56CCCN5CCC6)[nH]4)c3c2)c1C [Example 216, 2-(5-{5-[(ethylamino)methyl]-4-methylpyridin-3-yl}-1H-indazol-3-yl)-N-[2-(tetrahydro-1H-pyrrolizin-7a(5H)-yl)ethyl]-1H-imidazole-5-carboxamide]",13
5,"CCNCc1cncc(-c2ccc3[nH]nc(-c4ncc(C(=O)N5CCc6ncsc6C5)[nH]4)c3c2)c1C [Example 217, [(5-{3-[5-(6,7-dihydro[1,3]thiazolo[5,4-c]pyridin-5(4H)-ylcarbonyl)-1H-imidazol-2-yl]-1H-indazol-5-yl}-4-methylpyridin-3-yl)methyl]ethylamine]",79
6,"CCNCc1cncc(-c2ccc3[nH]nc(-c4ncc(C(=O)N5Cc6ccccc6C(c6ccccn6)C5)[nH]4)c3c2)c1C (centres unmarked) [Example 218, ethyl{[4-methyl-5-(3-{5-[(4-pyridin-2-yl-3,4-dihydroisoquinolin-2(1H)-yl)carbonyl]-1H-imidazxol-2-yl}-1H-indazol-5-yl)pyridin-3-yl]methyl}amine]",47
7,"CCNCc1cncc(-c2ccc3[nH]nc(-c4ncc(C(=O)NCC56CCCN5CCC6)[nH]4)c3c2)c1C [Example 219, 2-(5-{5-[(ethylamino)methyl]-4-methylpyridin-3-yl}-1H-indazol-3-yl)-N-(tetrahydro-1H-pyrrolizin-7a(5H)-ylmethyl)-1H-imidazole-5-carboxamide]",20
8,"CCNCc1cncc(-c2ccc3[nH]nc(-c4ncc(C(=O)N5C[C@H](C(=O)OC)[C@@H](c6cccnc6)C5)[nH]4)c3c2)c1C [Example 220, methyl(3R,4S)-1-{[2-(5-{5-[(ethylamino)methyl]-4-methylpyridin-3-yl}-1H-indazol-3-yl)-1H-imidazol-5-yl]carbonyl}-4-pyridin-3-ylpyrrolidine-3-carboxylate]",46
9,"CCNCc1cncc(-c2ccc3[nH]nc(-c4ncc(C(=O)NCCc5c[nH]c6ccc(F)cc56)[nH]4)c3c2)c1C [Example 221, 2-(5-{5-[(ethylamino)methyl]-4-methylpyridin-3-yl}-1H-indazol-3-yl)-N-[2-(5-fluoro-1H-indol-3-yl)ethyl]-1H-imidazole-5-carboxamide]",56
10,"CCNCc1cncc(-c2ccc3[nH]nc(-c4ncc(C(=O)N5CCCN(Cc6ccc(F)cc6)CC5)[nH]4)c3c2)c1C [Example 222, ethyl({5-[3-(5-{[4-(4-fluorobenzyl)-1,4-diazxepan-1-yl]carbonyl}1H-imidazol-2-yl)-1H-indazol-5-yl]-4-methylpyridin-3-yl}methyl)amine]",30
11,CCNCc1cncc(-c2ccc3[nH]nc(-c4ncc(C(=O)NCCSc5ccc(F)cc5)[nH]4)c3c2)c1C [Example 223],71
12,CCNCc1cncc(-c2ccc3[nH]nc(-c4ncc(C(=O)NCc5ccc(-c6csnn6)cc5)[nH]4)c3c2)c1C [Example 224],72
13,"CCNCc1cncc(-c2ccc3[nH]nc(-c4ncc(C(=O)N(C)Cc5cnn(-c6ccccc6)c5)[nH]4)c3c2)c1C [Example 225, 2-(5-{5-[(ethylamino)methyl]-4-methylpyridin-3-yl}-1H-indazol-3-yl)-N-methyl-N-[(1-phenyl-1H-pyrazol-4-yl)methyl]-1H-imidazole-5-carboxamide]",70
14,CCNCc1cncc(-c2ccc3[nH]nc(-c4ncc(C(=O)N5CCN(c6ncccc6C#N)CC5)[nH]4)c3c2)c1C [Example 226],62
15,"CCNCc1cncc(-c2ccc3[nH]nc(-c4ncc(C(=O)N5Cc6ccccc6C5)[nH]4)c3c2)c1C [Example 227, [(5-{3-[5-(1,3-dihydro-2H-isoindol-2-ylcarbonyl)-1H-imidazol-2-yl]-1H-indazol-5-yl}-4-methylpyridin-3-yl)methyl]ethylamine]",84
16,"CCNCc1cncc(-c2ccc3[nH]nc(-c4ncc(C(=O)N5CCN(Cc6ccccn6)CC5)[nH]4)c3c2)c1C [Example 228, ethyl({4-methyl-5-[3-(5-{[4-(pyridin-2-ylmethyl)piperazin-1-yl]carbonyl)-1H-imidazol-2-yl)-1H-indazol-5-yl]pyridin-3-yl}methyl)amine]",50
